The source made the active and inactive calls. The calls are words filed in the database; no cut-off is given here.
Assays:
[1] = tested on: Human immunodeficiency virus 1; experiment: Antiviral activity against HIV-1 HE infected in wild type human CEM/0 cells assessed as inhibition of virus-induced giant cell formation incubated for 4 to 5 days by light microscopy; type: functional, organism-based; details: Human immunodeficiency virus 1, HE, CCRF-CEM
[2] = Drug metabolism in human CEM/0 cell extracts assessed as (R)-9-(2-(phosphonomethoxy)propyl)adenine formation by RP18-HPLC analysis; type: ADME; details: ccrf-cem
[3] = target: T1, DNA polymerase subunit gamma-1 (Homo sapiens) (UniProt P54098); experiment: Substrate activity at human DNA polymerase gamma assessed as n+1 band formation incubated for 120 mins in presence of primer/template mixture and dNTPs by primer extension assay based fluorescence analysis
T1 sequence (whole entry): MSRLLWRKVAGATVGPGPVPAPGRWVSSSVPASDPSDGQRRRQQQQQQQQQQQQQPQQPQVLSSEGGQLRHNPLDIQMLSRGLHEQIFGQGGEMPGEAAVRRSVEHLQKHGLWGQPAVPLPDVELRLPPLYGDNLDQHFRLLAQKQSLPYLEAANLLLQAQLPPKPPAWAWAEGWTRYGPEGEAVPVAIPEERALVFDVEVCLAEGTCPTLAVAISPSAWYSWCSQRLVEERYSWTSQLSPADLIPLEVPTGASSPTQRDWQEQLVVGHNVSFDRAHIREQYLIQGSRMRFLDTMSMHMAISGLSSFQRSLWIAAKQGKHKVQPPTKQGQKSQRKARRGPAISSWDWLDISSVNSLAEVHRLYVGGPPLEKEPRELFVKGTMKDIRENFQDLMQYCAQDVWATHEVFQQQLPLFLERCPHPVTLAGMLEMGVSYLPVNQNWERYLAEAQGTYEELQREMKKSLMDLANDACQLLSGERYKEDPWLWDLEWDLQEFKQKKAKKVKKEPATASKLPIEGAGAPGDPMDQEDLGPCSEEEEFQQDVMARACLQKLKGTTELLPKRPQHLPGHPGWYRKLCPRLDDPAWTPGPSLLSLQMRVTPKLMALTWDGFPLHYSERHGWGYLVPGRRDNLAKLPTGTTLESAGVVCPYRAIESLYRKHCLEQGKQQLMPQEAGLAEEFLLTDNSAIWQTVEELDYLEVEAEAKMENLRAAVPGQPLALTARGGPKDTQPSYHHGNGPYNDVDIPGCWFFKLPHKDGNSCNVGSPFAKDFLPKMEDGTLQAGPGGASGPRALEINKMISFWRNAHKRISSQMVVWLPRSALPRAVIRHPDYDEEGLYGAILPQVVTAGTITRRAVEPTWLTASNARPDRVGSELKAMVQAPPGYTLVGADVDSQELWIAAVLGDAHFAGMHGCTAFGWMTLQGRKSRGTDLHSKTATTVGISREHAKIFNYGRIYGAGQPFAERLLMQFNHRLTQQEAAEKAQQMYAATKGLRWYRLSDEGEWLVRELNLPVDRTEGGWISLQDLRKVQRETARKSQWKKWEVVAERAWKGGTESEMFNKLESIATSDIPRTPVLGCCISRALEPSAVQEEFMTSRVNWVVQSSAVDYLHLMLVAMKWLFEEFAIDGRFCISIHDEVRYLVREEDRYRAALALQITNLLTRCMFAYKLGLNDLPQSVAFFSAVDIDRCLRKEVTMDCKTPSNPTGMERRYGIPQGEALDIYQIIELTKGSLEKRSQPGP

[4] = tested on: Human immunodeficiency virus 2; experiment: Potency index, ratio of Tenofovir EC50 to test compound EC50 for antiviral activity against HIV-2 ROD infected in wild type human CEM/0 cells; type: functional
[5] = Selectivity index, ratio of CC50 for cytotoxicity against human CEM cells to EC50 for antiviral activity against HIV-2 ROD infected in thymidine kinase deficient human CEM cells; type: toxicity, cell-based; details: read-out: Ratio CC50/EC50
[6] = Half life of the compound in citrate-containing human plasma by HPLC analysis; type: ADME, cell-free
[7] = Cytotoxicity against human CEM cells assessed as inhibition of cell proliferation; type: toxicity, cell-based, CCRF-CEM
[8] = Drug metabolism in phosphate buffer saline assessed as (R)-9-(2-(phosphonomethoxy)propyl)adenine formation in presence of pig liver esterase at pH 7.3 by RP18-HPLC analysis; type: ADME, Sus scrofa; details: isolated protein
[9] = tested on: Human immunodeficiency virus 2; experiment: Potency index, ratio of Tenofovir EC50 to test compound EC50 for antiviral activity against HIV-2 ROD infected in thymidine kinase deficient human CEM cells; type: functional
[10] = tested on: Human immunodeficiency virus 1; experiment: Potency index, ratio of Tenofovir EC50 to test compound EC50 for antiviral activity against HIV-1 HE infected in wild type human CEM/0 cells; type: functional
[11] = Drug metabolism in human CEM/0 cell extracts assessed as Tenofovir monophosphate formation by RP18-HPLC analysis; type: ADME; details: ccrf-cem
[12] = Drug hydrolysis in phosphate buffer saline incubated for 100 hrs in presence of pig liver esterase at pH 7.3 by RP18-HPLC analysis; type: ADME, Sus scrofa; details: read-out: Drug degradation
[13] = Drug metabolism in phosphate buffer saline assessed as Tenofovir diphosphate formation in presence of pig liver esterase at pH 7.3 by RP18-HPLC analysis; type: ADME, Sus scrofa; details: isolated protein
[14] = Drug metabolism in phosphate buffer saline assessed as gamma-monoalkylated metabolite formation in presence of pig liver esterase at pH 7.3 by RP18-HPLC analysis; type: ADME, Sus scrofa; details: isolated protein
[15] = Drug metabolism in human CEM/0 cell extracts assessed as gamma-monoalkylated metabolite formation by RP18-HPLC analysis; type: ADME; details: ccrf-cem
[16] = Drug hydrolysis in phosphate buffer saline incubated for 600 hrs at pH 7.3 by RP18-HPLC analysis; type: physicochemical; details: read-out: Drug degradation
[17] = Drug metabolism in human CEM/0 cell extracts assessed as Tenofovir diphosphate formation by RP18-HPLC analysis; type: ADME; details: ccrf-cem
[18] = Drug hydrolysis in phosphate buffer saline incubated for 500 hrs at pH 7.3 by RP18-HPLC analysis; type: physicochemical; details: read-out: Drug degradation

Row | EC50 [1] [µM] | Drug metabolism [2] | Activity [3] | half-life [6] [h] | Drug metabolism [8] | Drug metabolism [11] | metabolised at 100 h [12] [%] | Drug metabolism [13] | Drug metabolism [14] | Drug metabolism [15] | degraded at 600 h [16] [%] | Drug metabolism [17] | degraded at 500 h [18] [%] | SMILES | Ratio EC50 [4] | selectivity ratio [5] | CC50 [7] [µM] | Ratio EC50 [9] | Ratio EC50 [10]
1 | 0.035 | Metabolite_Detected | inactive | > 5 | Metabolite_Detected |  |  |  |  |  |  |  |  | CCCCCCCCCCCCCCCCCCP(=O)(OCCCC)OP(=O)(O)CO[C@H](C)Cn1cnc2c(N)ncnc21 (some centres not stated) | 567 | 14000 | 37.8 | 326 | 59
2 | 0.047 |  | inactive | > 8 |  | Metabolite_Detected | 31 | Metabolite_Notdetected | Metabolite_Notdetected |  |  |  |  | CCCCCCCCCCCCCCCCCCOP(=O)(OCCCC)OP(=O)(O)OP(=O)(O)CO[C@H](C)Cn1cnc2c(N)ncnc21 (some centres not stated) |  | 3690 | 44.3 |  | 
3 | 0.078 |  | inactive | > 8 |  | Metabolite_Detected | 16 | Metabolite_Notdetected | Metabolite_Notdetected | Metabolite_Notdetected | 45 | Metabolite_Notdetected | 40 | CCCCCCCCCCCCCCCCCCP(=O)(OCCCC)OP(=O)(O)OP(=O)(O)CO[C@H](C)Cn1cnc2c(N)ncnc21 (some centres not stated) |  | 1350 | 44.6 |  | 
